# In PubChem BioAssay (NCI):
#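 In this assay, cells in 96-well plates receive the compound at five concentrations for 48 hours. Endpoints are linearly interpolated between the surrounding concentrations. GI50: concentration for 50% inhibition of growth. TGI marks complete inhibition of growth.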
# Experiments:
# Test in all cases: NCI anticancer screen, dose series, 48 h
# MDA-MB-468 breast = tested on: MDA-MB-468 breast
# MOLT-4 leukemia = tested on: MOLT-4 leukemia
# SF-268 CNS = tested on: SF-268 CNS
# IGROV1 ovarian = tested on: IGROV1 ovarian
# MDA-MB-231 breast = tested on: MDA-MB-231 breast
# LOX IMVI melanoma = tested on: LOX IMVI melanoma
# A549 NSCLC = tested on: A549 NSCLC
# MDA-MB-435 = tested on: MDA-MB-435
# RPMI-8226 leukemia = tested on: RPMI-8226 leukemia
# SNB-19 CNS = tested on: SNB-19 CNS
# SK-MEL-28 melanoma = tested on: SK-MEL-28 melanoma
# CAKI-1 renal = tested on: CAKI-1 renal
# DU-145 prostate = tested on: DU-145 prostate
# HCC-2998 colon = tested on: HCC-2998 colon
# HS 578T breast = tested on: HS 578T breast
# KM12 colon = tested on: KM12 colon
# PC-3 prostate = tested on: PC-3 prostate
# OVCAR-3 ovarian = tested on: OVCAR-3 ovarian
# NCI-H460 lung = tested on: NCI-H460 lung
# SK-MEL-2 melanoma = tested on: SK-MEL-2 melanoma
# UO-31 renal = tested on: UO-31 renal
# BT-549 breast = tested on: BT-549 breast
# SF-539 CNS = tested on: SF-539 CNS
# SK-OV-3 ovarian = tested on: SK-OV-3 ovarian
# SN12C renal = tested on: SN12C renal
# OVCAR-4 ovarian = tested on: OVCAR-4 ovarian
# HL-60(TB) leukemia = tested on: HL-60(TB) leukemia
# K-562 leukemia = tested on: K-562 leukemia
# RXF 393 renal = tested on: RXF 393 renal
# A498 renal = tested on: A498 renal
# MALME-3M melanoma = tested on: MALME-3M melanoma
# HOP-62 NSCLC = tested on: HOP-62 NSCLC
# OVCAR-5 ovarian = tested on: OVCAR-5 ovarian
# TK-10 renal = tested on: TK-10 renal
# NCI-H226 lung = tested on: NCI-H226 lung
# OVCAR-8 ovarian = tested on: OVCAR-8 ovarian
# UACC-62 melanoma = tested on: UACC-62 melanoma
# SF-295 CNS = tested on: SF-295 CNS
# MCF7 breast = tested on: MCF7 breast
# EKVX NSCLC = tested on: EKVX NSCLC
# SR leukemia = tested on: SR leukemia
# HOP-92 NSCLC = tested on: HOP-92 NSCLC
# 786-0 renal = tested on: 786-0 renal
# NCI-H522 lung = tested on: NCI-H522 lung
# ACHN renal = tested on: ACHN renal
# SW-620 colon = tested on: SW-620 colon
# HCT-116 colon = tested on: HCT-116 colon
# SK-MEL-5 melanoma = tested on: SK-MEL-5 melanoma
# NCI-H23 lung = tested on: NCI-H23 lung
# HCT-15 colon = tested on: HCT-15 colon
# T-47D breast = tested on: T-47D breast
# M14 melanoma = tested on: M14 melanoma
# COLO 205 colon = tested on: COLO 205 colon
# HT29 colon = tested on: HT29 colon
# U251 CNS = tested on: U251 CNS
# CCRF-CEM leukemia = tested on: CCRF-CEM leukemia
# UACC-257 melanoma = tested on: UACC-257 melanoma
smiles,measurement,setting,value
O=C(NCCCc1cn[nH]c1)c1ccc(-c2ccncc2)c(C#Cc2ccc(F)cc2)c1,GI50,MDA-MB-468 breast,2.14 µM
same,TGI,MDA-MB-468 breast,12.8 µM
O=C1/C(=C/c2ccc(F)cc2)CN(C(=O)CCN2CCC(=NO)CC2)C/C1=C\c1ccc(F)cc1,GI50,MDA-MB-468 breast,1.73 µM
same,TGI,MDA-MB-468 breast,4.72 µM
O=C(/C=C/C=C/c1ccccc1)c1ccco1,GI50,MDA-MB-468 breast,5 µM
same,TGI,MDA-MB-468 breast,25.1 µM
COc1ccc2[nH]c(=O)cc(-n3ncc(C(=O)/C=C/c4cc(OC)c(OC)c(OC)c4)c3C)c2c1,GI50,MOLT-4 leukemia,3.81 µM
same,TGI,MOLT-4 leukemia,64.9 µM
same,GI50,SF-268 CNS,10.4 µM
same,TGI,SF-268 CNS,34.8 µM
same,GI50,IGROV1 ovarian,3.46 µM
same,TGI,IGROV1 ovarian,13.5 µM
same,GI50,MDA-MB-231 breast,5.4 µM
same,TGI,MDA-MB-231 breast,18.6 µM
same,GI50,LOX IMVI melanoma,2.75 µM
same,TGI,LOX IMVI melanoma,9.83 µM
same,GI50,A549 NSCLC,11.5 µM
same,TGI,A549 NSCLC,52.2 µM
same,GI50,MDA-MB-435,3.81 µM
same,TGI,MDA-MB-435,14.1 µM
same,GI50,RPMI-8226 leukemia,2.91 µM
same,TGI,RPMI-8226 leukemia,15 µM
same,GI50,SNB-19 CNS,11.2 µM
same,TGI,SNB-19 CNS,23.4 µM
same,GI50,SK-MEL-28 melanoma,5.26 µM
same,TGI,SK-MEL-28 melanoma,17.4 µM
same,GI50,CAKI-1 renal,5.23 µM
same,TGI,CAKI-1 renal,20 µM
same,GI50,DU-145 prostate,3.29 µM
same,TGI,DU-145 prostate,10.8 µM
same,GI50,HCC-2998 colon,11.5 µM
same,TGI,HCC-2998 colon,24 µM
same,GI50,HS 578T breast,8.96 µM
same,TGI,HS 578T breast,95.2 µM
same,GI50,KM12 colon,13.2 µM
same,TGI,KM12 colon,30.1 µM
same,GI50,PC-3 prostate,10 µM
same,TGI,PC-3 prostate,38 µM
same,GI50,OVCAR-3 ovarian,4.04 µM
same,TGI,OVCAR-3 ovarian,13.9 µM
same,GI50,NCI-H460 lung,3.28 µM
same,TGI,NCI-H460 lung,13.6 µM
same,GI50,SK-MEL-2 melanoma,6.06 µM
same,TGI,SK-MEL-2 melanoma,18.7 µM
same,GI50,UO-31 renal,5.62 µM
same,TGI,UO-31 renal,18.9 µM
same,GI50,BT-549 breast,3.47 µM
same,TGI,BT-549 breast,13.8 µM
same,GI50,SF-539 CNS,2.68 µM
same,TGI,SF-539 CNS,9.09 µM
same,GI50,SK-OV-3 ovarian,12 µM
same,TGI,SK-OV-3 ovarian,36.5 µM
same,GI50,SN12C renal,3.59 µM
same,TGI,SN12C renal,15.6 µM
same,GI50,OVCAR-4 ovarian,12.4 µM
same,TGI,OVCAR-4 ovarian,42.9 µM
same,GI50,HL-60(TB) leukemia,3.88 µM
same,TGI,HL-60(TB) leukemia,29 µM
same,GI50,K-562 leukemia,3.24 µM
same,TGI,K-562 leukemia,> 100 µM
same,GI50,RXF 393 renal,2.79 µM
same,TGI,RXF 393 renal,9.94 µM
same,GI50,A498 renal,19.1 µM
same,TGI,A498 renal,36.3 µM
same,GI50,MALME-3M melanoma,6.82 µM
same,TGI,MALME-3M melanoma,19.9 µM
same,GI50,HOP-62 NSCLC,11.2 µM
same,TGI,HOP-62 NSCLC,26.4 µM
same,GI50,OVCAR-5 ovarian,3.99 µM
same,TGI,OVCAR-5 ovarian,15.1 µM
same,GI50,TK-10 renal,8.02 µM
same,TGI,TK-10 renal,20.9 µM
same,GI50,NCI-H226 lung,11.1 µM
same,TGI,NCI-H226 lung,25.4 µM
same,GI50,OVCAR-8 ovarian,3.46 µM
same,TGI,OVCAR-8 ovarian,12.3 µM
same,GI50,UACC-62 melanoma,7.17 µM
same,TGI,UACC-62 melanoma,20.2 µM
same,GI50,SF-295 CNS,4.64 µM
same,TGI,SF-295 CNS,16.6 µM
same,GI50,MDA-MB-468 breast,2.5 µM
same,TGI,MDA-MB-468 breast,7.3 µM
same,GI50,MCF7 breast,3.19 µM
same,TGI,MCF7 breast,11.9 µM
same,GI50,EKVX NSCLC,5.16 µM
same,TGI,EKVX NSCLC,20.1 µM
same,GI50,SR leukemia,4.2 µM
same,TGI,SR leukemia,> 100 µM
same,GI50,HOP-92 NSCLC,11.4 µM
same,TGI,HOP-92 NSCLC,34.9 µM
same,GI50,786-0 renal,11 µM
same,TGI,786-0 renal,25.3 µM
same,GI50,NCI-H522 lung,3.6 µM
same,TGI,NCI-H522 lung,13.3 µM
same,GI50,ACHN renal,4.33 µM
same,TGI,ACHN renal,16.6 µM
same,GI50,SW-620 colon,3.54 µM
same,TGI,SW-620 colon,13.5 µM
same,GI50,HCT-116 colon,7.41 µM
same,TGI,HCT-116 colon,21.7 µM
same,GI50,SK-MEL-5 melanoma,10.3 µM
same,TGI,SK-MEL-5 melanoma,22 µM
same,GI50,NCI-H23 lung,3.5 µM
same,TGI,NCI-H23 lung,13 µM
same,GI50,HCT-15 colon,3.57 µM
same,TGI,HCT-15 colon,15.7 µM
same,GI50,T-47D breast,6.59 µM
same,TGI,T-47D breast,43.6 µM
same,GI50,M14 melanoma,8.64 µM
same,TGI,M14 melanoma,29.9 µM
same,GI50,COLO 205 colon,4.94 µM
same,TGI,COLO 205 colon,17.2 µM
same,GI50,HT29 colon,3.15 µM
same,TGI,HT29 colon,11 µM
same,GI50,U251 CNS,3.91 µM
same,TGI,U251 CNS,18.5 µM
same,GI50,CCRF-CEM leukemia,2.76 µM
same,TGI,CCRF-CEM leukemia,16.8 µM
same,GI50,UACC-257 melanoma,12.5 µM
same,TGI,UACC-257 melanoma,26.6 µM
C[C@@H]1CCC/C=C/[C@H]2C[C@@H](O)C[C@@H]2[C@@H](O)/C=C/C(=O)O1,GI50,MDA-MB-468 breast,0.0648 µM
same,TGI,MDA-MB-468 breast,5.03 µM
COc1ccccc1S(=O)(=O)Nc1ccc2c3c(cc(CCC(=O)NCCCCNc4cccc5c4C(=O)N(C4CCC(=O)NC4=O)C5=O)cc13)C(=O)N2C (centres undefined),GI50,MDA-MB-468 breast,0.0217 µM
same,TGI,MDA-MB-468 breast,0.0872 µM
